Test results: article PMC13108699, “Mass balance and metabolite profiling of ^14C-Zalunfiban in humans following single-dose subcutaneous administration” (Xenobiotica; the fate of foreign compounds in biological …, 2025)
Like-named read-outs stand apart in the source and are kept apart here.

Assay: Whole blood zalunfiban and M1 concentrations (LC-MS/MS) and non-compartmental PK, phase 1 mass balance study
Assay type: in vivo, human
Conditions: for Cmax / Tmax / AUC(0-inf) / AUC(0-t) / k el / Vd/F / half-life: male, human, whole blood; for AUC(0-inf): read-out: AUC0-inf, whole blood zalunfiban; for AUC(0-t): read-out: AUC0-last, whole blood zalunfiban; for k el: read-out: Kel, whole blood zalunfiban (converted); for Vd/F: read-out: Vz/F, whole blood zalunfiban; for half-life: read-out: t1/2, whole blood zalunfiban (converted)
Text: This was a Phase 1, single-centre, open-label, non-controlled, mass balance and metabolite profiling study of ^14C-radiolabeled zalunfiban in health male volunteers (NCT04284995). The planned participant enrolment size was 8, with 2 additional alternate participants available on the morning of dosing. Following a 28-day screening period, all eligible participants were admitted to the research unit the evening before dosing. After fasting overnight, participants completed a standard breakfast prior to dosing on study day 1. After dosing, subjects fasted for 4 h. Fluids were permitted ad libitum starting 1-hour after dosing. The investigational product (IP) was injected SC on study day 1 and participants were housed for 11 days, which is past the final 240-hour sampling time, and then discharged following final evaluation. The clinical study was conducted at the Pharmaron Clinical Pharmacology Centre (Baltimore, MD) and the study protocol, consent forms and regulatory documents were reviewed and approved by the Advarra Institutional Review Board (Columbia, MD).
All participants received the same fixed mass dose of SC 9.5 mg ^14C-zalunfiban (5 μCi), in 0.5 mL of formulation solution. This zalunfiban dose was chosen to both ensure participant safety and to make certain the study results were clinically relevant. For the latter, by strict inclusion of participants with a body weight within the range of 73–99 kg, the zalunfiban doses were no higher than the highest administered in the currently ongoing Phase 3 study, which includes three groups of 0.110 mg/kg zalunfiban, 0.130 mg/kg zalunfiban, and placebo ([NIH 2025]). The ^14C radiolabel dose of 5 μCi presented minimal radiation risk to healthy subjects while providing a high likelihood of meeting the study objectives.
Serial blood samples were collected to determine zalunfiban and its major metabolite des-gly-zalunfiban (M1) whole blood concentrations, additional whole blood metabolite profiling, and total whole blood ^14C at pre dose (−60 min); 5, 10, 15, 30 and 45 min; and 1, 1.5, 2, 2.5, 3, 4, 6, 8, 12, 16, 24, 36, 48, 72, 96, 120, 144, 168, 192, 216 and 240 h after dosing. Blood samples were taken via an indwelling IV catheter or by direct venipuncture into designated blood collection tubes, with K2 EDTA used as an anticoagulant. Study samples were diluted immediately after blood collection, at a ratio of 1:4 using prechilled 30% acetonitrile, then separated into storage tubes and immediately frozen at −80°C for shipment to the analytical laboratory. At the laboratory, extraction of ^14C-zalunfiban from whole blood was achieved by repeated microcentrifugation, vortex mixing, and harvesting to collect analytes (see Metabolite profiling and excretion for more details).
Zalunfiban and M1 whole blood concentrations were measured using a validated LC-MS/MS method in compliance with the ICH-M10 guideline. The method utilised a Sciex 5500 mass spectrometer, Shimadzu LC30AD HPLC system, and a Shimadzu AD multiplate autosampler. Mobile phase A (MPA) was 10 mM ammonium acetate with 0.1% ammonium hydroxide and mobile phase B (MPB) was 10 mM ammonium acetate with acetonitrile:ammonium hydroxide. An Acquity UPLC BEH Hilic 1.7 micrometer column (Waters Corporation) was used at a temperature of 50 °C. The column flow rate was 0.4 mL/min and injection volumes were 2.0 microliters. The gradient for analytical pumps was set at 30% MAP and 70% MPB.
For whole blood LC-MS/MS the calibration ranges were 5.00–500.00 ng/mL for zalunfiban and 25.00–2500.00 ng/mL for M1. Zalunfiban and M1 sample concentrations below 5 ng/mL and 25 ng/mL, respectively, were reported as below the lower limit of quantification (<LLOQ).
Zalunfiban and whole blood radioactivity concentrations were used to calculate PK parameters using standard non-compartmental analysis (NCA) methods using Phoenix WinNonlin software (Phoenix, Princeton, NJ). […]

[1] = geometric mean, n=8, single SC 9.5 mg
[2] = sc, 9.5 mg, geometric mean, n=8, single SC 9.5 mg
[3] = sc, 9.5 mg, mean, n=8, single SC 9.5 mg
[4] = sc, 9.5 mg, median, n=8, single SC 9.5 mg

Q: Which results are given for `NCC(=O)Nc1cncc(-c2nn3c(=O)cc(N4CCNCC4)nc3s2)c1` [Zalunfiban, 2-amino-N-{5-[5-oxo-7-(piperazin-1-yl)-5H-[1,3,4]thia-diazolo[3,2-a]pyrimidin-2-yl]pyridin-3-yl}acetamide]?
A: Time of last measurable whole blood zalunfiban concentration (all participants): ≤ 4 h; CL/F, whole blood zalunfiban [1]: 80.7 L/h; tlast, whole blood zalunfiban [1]: 3.4 h; Cmax [2]: 94.6 ng/mL; Tmax [2]: 15 min; AUC(0-inf) [2]: 116 ng·h/mL; AUC(0-t) [2]: 107 ng·h/mL; k el [2]: 0.00021 s⁻¹; Vd/F [2]: 107 L; half-life [2]: 55.2 min; half-life (sc, 9.5 mg, mean terminal half-life, n=8, single SC 9.5 mg): ~60 min; Tmax [3]: 15.6 min; Cmax (sc, 9.5 mg, mean, n=8, single SC 9.5 mg ^14C-zalunfiban): 95.2 ng/mL; AUC(0-inf) [3]: 118 ng·h/mL; AUC(0-t) [3]: 109 ng·h/mL; k el [3]: 0.000218 s⁻¹; Vd/F [3]: 114 L; Cmax [4]: 96.9 ng/mL; Tmax [4]: ~15 min; AUC(0-inf) [4]: 123 ng·h/mL; AUC(0-t) [4]: 114 ng·h/mL; k el [4]: 0.000229 s⁻¹; half-life [4]: 50.4 min; Tmax (subcutaneous, 9.5 mg, median): 15 min; Vd/F (median, n=8, single SC 9.5 mg): 96.6 L; CL/F, whole blood zalunfiban (mean, n=8, single SC 9.5 mg): 81.8 L/h; tlast, whole blood zalunfiban (mean, n=8, single SC 9.5 mg): 3.4 h; CL/F, whole blood zalunfiban (median, n=8, single SC 9.5 mg): 76.3 L/h; tlast, whole blood zalunfiban (median, n=8, single SC 9.5 mg): 3.5 h
